Reference: ChEMBL document CHEMBL1667822, “Selective antagonists of mouse trace amine-associated receptor 1 (mTAAR1): discovery of EPPTB (RO5212773)” (Bioorg Med Chem Lett, 2011)

Key:
[1] = molecular target: Neuromedin-K receptor (Homo sapiens) (UniProt P29371); assay: Displacement of [3H]SR 142801 from human recombinant NK3 receptor expressed in CHO cells; type: cell-based; settings: concentration not given here
CHO = assay: Displacement of [3H]DADLE from human recombinant delta 2 opioid receptor expressed in CHO cells; type: cell-based; settings: dose or concentration not given here
[2] = molecular target: Cholecystokinin receptor type A (Homo sapiens) (UniProt P32238); assay: Inhibition of human cholecystokinin 1 receptor at 10 uM
Sequence of Cholecystokinin receptor type A (Homo sapiens) (P32238 whole entry): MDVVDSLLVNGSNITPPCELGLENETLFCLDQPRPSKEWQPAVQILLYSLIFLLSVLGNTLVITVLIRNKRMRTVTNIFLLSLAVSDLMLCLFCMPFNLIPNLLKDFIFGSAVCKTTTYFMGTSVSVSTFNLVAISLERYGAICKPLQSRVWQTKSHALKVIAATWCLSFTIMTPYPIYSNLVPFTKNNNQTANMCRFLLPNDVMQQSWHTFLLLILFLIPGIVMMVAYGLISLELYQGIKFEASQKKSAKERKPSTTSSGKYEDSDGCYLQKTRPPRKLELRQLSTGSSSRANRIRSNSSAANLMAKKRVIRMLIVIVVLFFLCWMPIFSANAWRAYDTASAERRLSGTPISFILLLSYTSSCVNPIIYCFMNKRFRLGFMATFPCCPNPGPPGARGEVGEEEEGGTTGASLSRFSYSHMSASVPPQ

[3] = molecular target: B2 bradykinin receptor (Homo sapiens) (UniProt P30411); assay: Displacement of [3H]bradykinin from human recombinant bradykinin B2 receptor expressed in CHO cells; type: cell-based; settings: concentration not given here
Sequence of B2 bradykinin receptor (Homo sapiens) (P30411 whole entry): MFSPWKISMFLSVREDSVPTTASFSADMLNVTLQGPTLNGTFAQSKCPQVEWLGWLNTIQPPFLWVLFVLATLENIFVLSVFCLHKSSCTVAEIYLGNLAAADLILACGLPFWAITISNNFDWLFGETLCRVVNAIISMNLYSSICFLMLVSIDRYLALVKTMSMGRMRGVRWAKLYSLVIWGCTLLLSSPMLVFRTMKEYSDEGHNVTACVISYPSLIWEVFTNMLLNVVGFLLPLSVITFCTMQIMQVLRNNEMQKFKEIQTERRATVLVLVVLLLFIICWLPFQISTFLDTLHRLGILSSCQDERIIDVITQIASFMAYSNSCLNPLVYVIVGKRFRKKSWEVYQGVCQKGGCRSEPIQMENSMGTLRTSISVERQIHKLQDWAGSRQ

Sequence of Neuromedin-K receptor (Homo sapiens) (P29371 whole entry): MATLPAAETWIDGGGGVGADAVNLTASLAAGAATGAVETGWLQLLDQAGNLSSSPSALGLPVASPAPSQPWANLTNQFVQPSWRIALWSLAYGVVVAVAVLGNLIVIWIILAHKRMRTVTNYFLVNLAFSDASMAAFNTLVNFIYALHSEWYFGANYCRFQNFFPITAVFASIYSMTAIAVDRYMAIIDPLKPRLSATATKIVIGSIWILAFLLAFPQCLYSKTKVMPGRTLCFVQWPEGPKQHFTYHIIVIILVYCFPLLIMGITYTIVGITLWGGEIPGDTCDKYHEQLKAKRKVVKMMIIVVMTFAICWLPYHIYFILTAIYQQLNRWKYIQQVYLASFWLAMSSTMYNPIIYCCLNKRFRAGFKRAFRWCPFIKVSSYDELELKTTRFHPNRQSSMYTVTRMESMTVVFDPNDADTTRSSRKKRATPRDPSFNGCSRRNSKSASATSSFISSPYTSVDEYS

`CCOc1cccc(NC(=O)c2ccc(N3CCCC3)c(C(F)(F)F)c2)c1` gave an inhibition [1] of 22%, an inhibition (CHO) of 28% and an inhibition [2] of 57%. It also gave an inhibition [3] of 2%.
